pIC50: −log10 of the molar value.
target: T1, human TPH1 (Homo sapiens, UniProt P17752); test: biochemical; details: not given
T1 sequence (P17752 1-444): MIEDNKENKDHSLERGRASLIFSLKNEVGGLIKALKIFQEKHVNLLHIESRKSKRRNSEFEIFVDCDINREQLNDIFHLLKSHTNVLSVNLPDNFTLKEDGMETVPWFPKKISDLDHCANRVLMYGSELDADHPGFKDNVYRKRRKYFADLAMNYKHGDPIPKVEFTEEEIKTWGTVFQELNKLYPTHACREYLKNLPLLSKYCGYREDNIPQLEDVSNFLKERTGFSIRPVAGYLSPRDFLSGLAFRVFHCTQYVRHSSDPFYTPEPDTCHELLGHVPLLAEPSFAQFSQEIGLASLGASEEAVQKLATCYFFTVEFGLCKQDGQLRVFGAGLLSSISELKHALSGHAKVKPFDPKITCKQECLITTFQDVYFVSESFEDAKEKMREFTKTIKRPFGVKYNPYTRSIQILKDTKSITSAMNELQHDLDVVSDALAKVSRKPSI
Method in brief: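 Inhibition is derived from 5-hydroxy-L-tryptophan fluorescence (540 nm emission, 300 nm excitation) after perchloric acid stop, relative to DMSO vehicle. Recombinant full-length human enzyme (40-80 nM) reacts with 40 μM tryptophan plus 100 μM methyltetrahydropterin, pH 7.6 Tris/DTT/catalase, 15° C, 60 min.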

Compound | pIC50
Cc1ccc(C2c3c(nc4cc(C(F)(F)F)ccn34)CCN2C(=O)COc2ccc(CN3CCOCC3)cc2Cl)nc1 (stereo not drawn) [Example 3.50.2, 2-(2-chloro-4-(morpholinomethyl)phenoxy)-1-(1-(5-methylpyridin-2-yl)-7-(trifluoromethyl)-3,4-dihydroimidazo[1,2-a:5,4-c′]dipyridin-2(1H)-yl)ethan-1-one] | 7.00
O=C(COc1ccc(CN2CCOCC2)cc1Cl)N1CCc2nc3cc(C(F)(F)F)ccn3c2C1c1cc2cccnc2s1 (stereo not drawn) [Example 3.49.2, 2-(2-chloro-4-(morpholinomethyl)phenoxy)-1-(1-(thieno[2,3-b]pyridin-2-yl)-7-(trifluoromethyl)-3,4-dihydroimidazo[1,2-a:5,4-c′]dipyridin-2(1H)-yl)ethan-1-one] | 7.89
COc1ccc(C2c3c(nc4ccccn34)CCN2C(=O)COc2ccc3ccccc3c2C)cc1OC (stereo not drawn) [Example 1.1.6, 1-(1-(3,4-dimethoxyphenyl)-3,4-dihydroimidazo[1,2-a:5,4-c′]dipyridin-2(1H)-yl)-2-((1-methylnaphthalen-2-yl)oxy)ethan-1-one] | 7.92
COc1cc(F)c(C2c3c(nc4cc(C(F)(F)F)ccn34)CCN2C(=O)COc2ccc(C3(N4CCOCC4)COC3)cc2Cl)cc1OC (stereo not drawn) [Example 3.18.10, 2-(2-chloro-4-(3-morpholinooxetan-3-yl)phenoxy)-1-(1-(2-fluoro-4,5-dimethoxyphenyl)-7-(trifluoromethyl)-3,4-dihydroimidazo[1,2-a:5,4-c′]dipyridin-2(1H)-yl)ethan-1-one] | 7.60
O=C(COc1ccc2ccccc2c1)N1CCc2nc3cc(C(F)(F)F)ccn3c2C1c1ccc(OC(F)F)cc1 (stereo not drawn) [Example 3.26.1, 1-(1-(4-(difluoromethoxy)phenyl)-7-(trifluoromethyl)-3,4-dihydroimidazo[1,2-a:5,4-c′]dipyridin-2(1H)-yl)-2-(naphthalen-2-yloxy)ethan-1-one] | 6.92
COc1ccc(C2c3c(nc4cc(C(F)(F)F)ccn34)CCN2C(=O)COc2ccc3c(c2)OCO3)cc1OC (stereo not drawn) [Example 3.1.21] | 6.94
COc1ccc(C2c3c(nc4cc(C(F)(F)F)ccn34)CCN2C(=O)COc2ccc(OC(F)(F)F)cc2)cc1OC (stereo not drawn) [Example 3.1.11] | 6.70
COc1ccc(C2c3c(nc4cc(C(F)(F)F)ccn34)CCN2C(=O)COc2cc(C)ccc2Cl)cc1OC (stereo not drawn) [Example 3.1.12, 2-(2-chloro-5-methylphenoxy)-1-(1-(3,4-dimethoxyphenyl)-7-(trifluoromethyl)-3,4-dihydroimidazo[1,2-a:5,4-c′]dipyridin-2(1H)-yl)ethan-1-one] | 7.19
COc1cc(F)c(C2c3c(nc4cc(C(F)(F)F)ccn34)CCN2C(=O)COc2ccc3c(c2)CN(C(C)=O)CC3)cc1OC (stereo not drawn) [Example 3.18.6, 2-((2-acetyl-1,2,3,4-tetrahydroisoquinolin-7-yl)oxy)-1-(1-(2-fluoro-4,5-dimethoxyphenyl)-7-(trifluoromethyl)-3,4-dihydroimidazo[1,2-a:5,4-c′]dipyridin-2(1H)-yl)ethan-1-one] | 8.22
Cc1ccc(C2c3c(nc4cc(C(F)(F)F)ccn34)CCN2C(=O)COc2ccc3ccccc3c2)nc1 (stereo not drawn) [Example 3.50.1, 1-(1-(5-methylpyridin-2-yl)-7-(trifluoromethyl)-3,4-dihydroimidazo[1,2-a:5,4-c′]dipyridin-2(1H)-yl)-2-(naphthalen-2-yloxy)ethan-1-one] | 7.24
CCc1ncc(C2c3c(nc4cc(C(F)(F)F)ccn34)CCN2C(=O)COc2ccc3ccccc3c2)cn1 (stereo not drawn) [Example 3.54.1, 1-(1-(2-ethylpyrimidin-5-yl)-7-(trifluoromethyl)-3,4-dihydroimidazo[1,2-a:5,4-c′]dipyridin-2(1H)-yl)-2-(naphthalen-2-yloxy)ethan-1-one] | 6.69
COc1ccc(C2c3c(nc4cc(C(F)(F)F)ccn34)CCN2C(=O)COc2ccc3ccccc3c2)cn1 (stereo not drawn) [Example 3.6.1, 1-(1-(6-methoxypyridin-3-yl)-7-(trifluoromethyl)-3,4-dihydroimidazo[1,2-a:5,4-c′]dipyridin-2(1H)-yl)-2-(naphthalen-2-yloxy)ethan-1-one] | 7.28
COc1ccc(C2c3c(nc4cc(Cl)ccn34)CCN2C(=O)COc2ccc(N3CCOCC3)cc2Cl)cc1OC (stereo not drawn) [Example 2.1.7, 1-(7-chloro-1-(3,4-dimethoxyphenyl)-3,4-dihydroimidazo[1,2-a:5,4-c′]dipyridin-2(1H)-yl)-2-(2-chloro-4-morpholinophenoxy)ethan-1-one] | 7.47
CCc1nc(C)ccc1OCC(=O)N1CCc2nc3cccnn3c2C1c1ncc(C2CC2)cc1F (stereo not drawn) [Example 16.2.2, 1-(9-(5-cyclopropyl-3-fluoropyridin-2-yl)-6,9-dihydropyrido[4′,3′:4,5]imidazo[1,2-b]pyridazin-8(7H)-yl)-2-((2-ethyl-6-methylpyridin-3-yl)oxy)ethan-1-one] | 6.89
COc1ccc(C2c3c(nc4cc(C(F)(F)F)ccn34)CCN2C(=O)COc2cnccc2Cl)cc1OC (stereo not drawn) [Example 3.1.18] | 6.63
COc1ccc(C2c3c(nc4cc(Cl)ccn34)CCN2C(=O)COc2ccc(CN3CCOCC3)cc2Cl)cc1OC[C@H](O)CO (stereo partly drawn) [Example 2.10.2, 1-(7-chloro-1-(3-((R)-2,3-dihydroxypropoxy)-4-methoxyphenyl)-3,4-dihydroimidazo[1,2-a:5,4-c′]dipyridin-2(1H)-yl)-2-(2-chloro-4-(morpholinomethyl)phenoxy)ethan-1-one] | 7.72

The next lines start with the values.

pIC50 | Compound
7.19 | CCc1cc(Cl)ccc1OCC(=O)N1CCc2nc3cc(C(F)(F)F)ccn3c2C1c1ccc(OC)c(OC)c1 (stereo not drawn) [Example 3.1.29, 2-(4-chloro-2-ethylphenoxy)-1-(1-(3,4-dimethoxyphenyl)-7-(trifluoromethyl)-3,4-dihydroimidazo[1,2-a:5,4-c′]dipyridin-2(1H)-yl)ethan-1-one]
8.10 | CS(=O)(=O)Nc1ccc(OCC(=O)N2CCc3nc4cc(Cl)ccn4c3C2c2ccc(Cl)cc2F)c(Cl)n1 (stereo not drawn) [Example 2.4.1, N-(6-chloro-5-(2-(7-chloro-1-(4-chloro-2-fluorophenyl)-3,4-dihydroimidazo[1,2-a:5,4-c′]dipyridin-2(1H)-yl)-2-oxoethoxy)pyridin-2-yl)methanesulfonamide]
7.68 | CCc1nc(C)ccc1OCC(=O)N1CCc2nc3cc(C(F)(F)F)ccn3c2C1c1ccc(Cl)cc1F (stereo not drawn) [Example 3.4.4, 1-(1-(4-chloro-2-fluorophenyl)-7-(trifluoromethyl)-3,4-dihydroimidazo[1,2-a:5,4-c′]dipyridin-2(1H)-yl)-2-((2-ethyl-6-methylpyridin-3-yl)oxy)ethan-1-one]
6.49 | CN(C)C(=O)c1ccc(OC2(C(=O)N3CCc4nc5ccccn5c4C3c3ccc(Cl)cc3F)CC2)c(Cl)n1 (stereo not drawn) [Example 1.4.15, 6-chloro-5-(1-(1-(4-chloro-2-fluorophenyl)-1,2,3,4-tetrahydroimidazo[1,2-a:5,4-c′]dipyridine-2-carbonyl)cyclopropoxy)-N,N-dimethylpicolinamide]
7.74 | Cc1cc(Cl)ccc1OCC(=O)N1CCc2nc3ccccn3c2C1c1ccc(Cl)cc1F (stereo not drawn) [Example 1.4.1, 1-(1-(4-chloro-2-fluorophenyl)-3,4-dihydroimidazo[1,2-a:5,4-c′]dipyridin-2(1H)-yl)-2-(4-chloro-2-methylphenoxy)ethan-1-one]
7.16 | COc1ccc(C2c3c(nc4ccccn34)CCN2C(=O)COc2ccc(Cl)cc2Cl)cc1OC (stereo not drawn) [Example 1.1.4, 2-(2,4-dichlorophenoxy)-1-(1-(3,4-dimethoxyphenyl)-3,4-dihydroimidazo[1,2-a:5,4-c′]dipyridin-2(1H)-yl)ethan-1-one]
6.62 | CCc1nc(C)ccc1OCC(=O)N1CCc2nc3ccccn3c2C1c1ccc(Cl)nc1F (stereo not drawn) [Example 1.11.3, 1-(1-(6-chloro-2-fluoropyridin-3-yl)-3,4-dihydroimidazo[1,2-a:5,4-c′]dipyridin-2(1H)-yl)-2-((2-ethyl-6-methylpyridin-3-yl)oxy)ethan-1-one]
8.15 | O=C(COc1ccc(N2CCOCC2)nc1Cl)N1CCc2nc3ccccn3c2C1c1ccc(Cl)nc1F (stereo not drawn) [Example 1.11.1, 1-(1-(6-chloro-2-fluoropyridin-3-yl)-3,4-dihydroimidazo[1,2-a:5,4-c′]dipyridin-2(1H)-yl)-2-((2-chloro-6-morpholinopyridin-3-yl)oxy)ethan-1-one]
7.10 | COCCOc1ccc(C2c3c(nc4ccccn34)CCN2C(=O)COc2ccc(NS(C)(=O)=O)nc2Cl)c(F)c1 (stereo not drawn) [Example 1.21.2, N-(6-chloro-5-(2-(1-(2-fluoro-4-(2-methoxyethoxy)phenyl)-3,4-dihydroimidazo[1,2-a:5,4-c′]dipyridin-2(1H)-yl)-2-oxoethoxy)pyridin-2-yl)methanesulfonamide]
7.82 | Cc1ccc(C2c3c(nc4cc(C(F)(F)F)ccn34)CCN2C(=O)COc2ccc(NS(C)(=O)=O)nc2Cl)c(F)c1 (stereo not drawn) [Example 3.22.5, N-(6-chloro-5-(2-(1-(2-fluoro-4-methylphenyl)-7-(trifluoromethyl)-3,4-dihydroimidazo[1,2-a:5,4-c′]dipyridin-2(1H)-yl)-2-oxoethoxy)pyridin-2-yl)methanesulfonamide]

same assay, conditions: Table 1; full length human TPH1, 40 μM L-tryptophan, 15° C., 60 minutes; mean if determined several times

Compound | pIC50
O=C(COc1ccc(N2CCOCC2)cc1Cl)N1CCc2nc3cc(C(F)(F)F)ccn3c2[C@H]1c1ccc(Cl)cc1F [Example 3.4.5, ((1R)-1-(4-chloro-2-fluorophenyl)-7-(trifluoromethyl)-3,10a-dihydroimidazo[1,2-a:5,4-c′]dipyridin-2(1H)-yl)-2-(2-chloro-4-morpholinophenoxy)ethan-1-one] | 8.22
